Results: ChEMBL document CHEMBL4651402, “Screening of ~5500 FDA-approved drugs and clinical candidates for anti-SARS-CoV-2 activity” (2021)

Tested on: SARS-CoV-2
Assay: microbe, parasite or virus in culture
Conditions: Severe acute respiratory syndrome coronavirus 2, Vero C1008, 48 h

| SMILES | IC50 [µM] | IC50 (read-out: pIC50 (converted)) [µM] |
| --- | --- | --- |
| CC(C)NCC(O)COc1cccc2[nH]ccc12 (stereo unspecified) [PINDOLOL] | > 20 | > 20 |
| CCc1ccc(CCOc2ccc(CC3SC(=O)NC3=O)cc2)nc1 (stereo unspecified) [PIOGLITAZONE] | > 20 | > 20 |
| NC(=O)C1(N2CCCCC2)CCN(CCCC(=O)c2ccc(F)cc2)CC1 [PIPAMPERONE] | > 20 | > 20 |
| CCn1cc(C(=O)O)c(=O)c2cnc(N3CCNCC3)nc21 [PIPEMIDIC ACID] | > 20 | > 20 |
| CC[N+]1(C)CCCC(OC(=O)C(O)(c2ccccc2)c2ccccc2)C1 (stereo unspecified) [PIPENZOLATE] | > 20 | > 20 |
| c1ccc(-c2cc(CCC3CCNCC3)c3ccccc3n2)cc1 [PIPEQUALINE] | > 20 | > 20 |
| O=C(O)/C=C/C=C/c1ccc2c(c1)OCO2 [PIPERIC ACID] | > 20 | > 20 |
| CCN1CCCC(OC(=O)C(c2ccccc2)c2ccccc2)C1 (stereo unspecified) [PIPERIDOLATE] | > 20 | > 20 |
| O=C(/C=C/C=C/c1ccc2c(c1)OCO2)N1CCCCC1 [PIPERINE] | > 20 | > 20 |
| O=C(O)c1ccc2c(c1)OCO2 [PIPERONYLIC ACID] | > 20 | > 20 |
| c1ccc2c(c1)OCC(CN1CCCCC1)O2 (stereo unspecified) [PIPEROXAN] | > 20 | > 20 |
| CN1CCN(c2cc3c(nn2)Oc2ccccc2N3C)CC1 [PIPOFEZINE] | > 20 | > 20 |
| COc1c(C(O)CCc2ccc(O)cc2)c(OCCN2CCCCC2)c(OC)c2occc12 (stereo unspecified) [PIPROFUROL] | > 20 | > 20 |
| Cc1nc2ccccn2c(=O)c1CCN1CCC(C(=O)c2ccc(F)cc2)CC1 [PIRENPERONE] | > 20 | > 20 |
| CN1CCN(CC(=O)N2c3ccccc3C(=O)Nc3cccnc32)CC1 [PIRENZEPINE] | > 20 | > 20 |
| NS(=O)(=O)c1cc(C(=O)O)cc(N2CCCC2)c1Oc1ccccc1 [PIRETANIDE] | > 20 | > 20 |
| Cc1ccc(=O)n(-c2ccccc2)c1 [PIRFENIDONE] | > 20 | > 20 |
| c1cnc(N2CCN(Cc3ccc4c(c3)OCO4)CC2)nc1 [PIRIBEDIL] | > 20 | > 20 |
| Cc1ccc2c(c1)c1c3n2CCNC3CCC1 (stereo unspecified) [PIRLINDOLE] | > 20 | > 20 |

| SMILES | IC50 [µM] | IC50 (read-out: pIC50 (converted)) [µM] |
| --- | --- | --- |
| Cc1cc(CC(C)CC(C)(C)C)n(O)c(=O)c1 (stereo unspecified) [PIROCTONE] | > 20 | > 20 |
| CN1CCC/C1=N\C(=N\c1ccccc1)N1CCCC1 [PIROGLIRIDE] | > 20 | > 20 |
| NC(=O)C(CCN1CCN2CCCC2C1)(c1ccccc1)c1ccccc1 (stereo unspecified) [PIROLAZAMIDE] | > 20 | > 20 |
| CCn1cc(C(=O)O)c(=O)c2cnc(N3CCCC3)nc21 [PIROMIDIC ACID] | > 20 | > 20 |
| NCCCNc1ccc2c3c(nn2CCNCCO)-c2c(O)ccc(O)c2C(=O)c13 [PIROXANTRONE] | > 20 | > 20 |
| CN1C(C(=O)Nc2ccccn2)=C(O)c2ccccc2S1(=O)=O [PIROXICAM] | > 20 | > 20 |
| CCc1[nH]c(=O)[nH]c1C(=O)c1ccncc1 [PIROXIMONE] | > 20 | > 20 |
| O=C(O)C[C@H](O)C[C@H](O)/C=C/c1c(C2CC2)nc2ccccc2c1-c1ccc(F)cc1 [PITAVASTATIN] | > 50.1 | > 50.1 |
| Clc1ccc(CCCOCCCN2CCCCC2)cc1 [PITOLISANT] | > 20 | > 20 |
| CC(C)(C)C(=O)NCCCC(=O)O [PIVAGABINE] | > 20 | > 20 |
| CC(C)(C)C(=O)OCOC(=O)[C@@H]1N2C(=O)[C@@H](NC(=O)[C@H](N)c3ccccc3)[C@H]2SC1(C)C [PIVAMPICILLIN] | > 20 | > 20 |
| CC(C)(C)C(=O)NNCc1ccccc1 [PIVHYDRAZINE] | > 20 | > 20 |
| CN1CCC(=C2c3ccccc3CCc3sccc32)CC1 [PIZOTYLINE] | > 20 | > 20 |
| C[C@@H](Nc1ncnc2[nH]c(-c3ccc(O)cc3)cc12)c1ccccc1 [PKI-166] | > 20 | > 20 |
| Cc1cc(CCCOc2c(C)cc(-c3noc(C(F)(F)F)n3)cc2C)on1 [PLECONARIL] | > 20 | > 20 |
| CC1=CC(=O)c2c(O)cccc2C1=O [PLUMBAGIN] | > 20 | > 20 |
| O=C(N[C@H]1CN2CCC1CC2)c1ccc(Cl)cc1 [PNU-282987] | > 20 | > 20 |
| COc1cc([C@@H]2c3cc4c(cc3[C@H](O)[C@H]3COC(=O)[C@H]23)OCO4)cc(OC)c1OC [PODOFILOX] | > 20 | > 20 |
| C[N+]1(C)CCCC1COC(=O)C(O)(c1ccccc1)c1ccccc1 (stereo unspecified) [POLDINE] | > 20 | > 20 |
